Measurements as given in PMC8113725, “Structure–activity relationship of ipglycermide binding to phosphoglycerate mutases” (The Journal of Biological Chemistry, 2021).
Like-named read-outs stand apart in the source and are kept apart here. Bridge positions count the residues as written; N and C are the ends. Square brackets hold non-standard residues; d marks the D form. Peptide text beside a SMILES is read from it. Phe(4-F) = N[C@@H](Cc1ccc(F)cc1)C(=O)O; Nva = CCC[C@H](N)C(=O)O

Experiments:
C. elegans iPGM = C. elegans iPGM (Caenorhabditis elegans, UniProt G5EFZ1); experiment: SPR binding kinetics and saturation binding, biotinylated iPGM on Biotin CAPture chip (Biacore S200)
B. malayi iPGM = target: T1, B. malayi iPGM (Brugia malayi, UniProt Q4VWF8); experiment: biochemical; format: binding; details: for Kd: Supplementary Table 5, SPR, B.m. iPGM, unit inferred
T1 sequence (Q4VWF8 1-515): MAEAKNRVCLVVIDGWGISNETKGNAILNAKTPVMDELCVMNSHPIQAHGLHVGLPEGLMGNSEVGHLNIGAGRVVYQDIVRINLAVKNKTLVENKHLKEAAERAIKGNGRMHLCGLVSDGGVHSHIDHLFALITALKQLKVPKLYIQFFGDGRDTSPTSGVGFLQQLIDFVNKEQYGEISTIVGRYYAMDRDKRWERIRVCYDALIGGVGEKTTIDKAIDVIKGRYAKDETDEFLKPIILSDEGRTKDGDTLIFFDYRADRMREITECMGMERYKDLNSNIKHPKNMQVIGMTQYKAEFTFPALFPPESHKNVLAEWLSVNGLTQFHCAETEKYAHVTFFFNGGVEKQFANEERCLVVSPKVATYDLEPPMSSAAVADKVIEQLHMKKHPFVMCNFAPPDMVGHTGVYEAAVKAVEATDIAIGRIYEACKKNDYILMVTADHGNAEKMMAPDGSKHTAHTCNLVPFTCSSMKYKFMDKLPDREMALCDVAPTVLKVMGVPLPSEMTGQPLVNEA

D. immitis iPGM = D. immitis iPGM (Dirofilaria immitis, UniProt F4ZE01); experiment: biochemical
E. coli iPGM [1] = target: T2, E. coli iPGM (Escherichia coli, UniProt P37689); experiment: biochemical; details: […]
E. coli iPGM [2] = target: T2, E. coli iPGM; experiment: SPR binding kinetics and saturation binding, biotinylated iPGM on Biotin CAPture chip (Biacore S200); details: for koff / kon: LoQ = limit of quantitation
[3] = Supplementary Table 5, SPR, E.c. iPGM
[4] = Supplementary Table 5, SPR, E.c. iPGM, unit inferred
[5] = SPR, 25 °C, global fit to 1:1 binding model

Row | SMILES | Kd (C. elegans iPGM) [nM] | koff (C. elegans iPGM) [s⁻¹] | kon (C. elegans iPGM) [M⁻¹ s⁻¹] | koff (B. malayi iPGM) [s⁻¹] | kon (B. malayi iPGM) [M⁻¹ s⁻¹] | Kd (B. malayi iPGM) [nM] | IC50 (D. immitis iPGM; Di iPGM Ave IC50 (M)) [M] | IC50 (D. immitis iPGM; IC50 (M)) [M] | IC50 (E. coli iPGM [1]) [µM] | koff (E. coli iPGM [2]; [3]) [s⁻¹] | kon (E. coli iPGM [2]; [3]) [M⁻¹ s⁻¹] | Kd (E. coli iPGM [2]; [4]) [nM] | further results
1 | CC(C)C[C@H](NC(=O)[C@H](Cc1ccc(O)cc1)NC(=O)[C@@H]1CSCC(=O)N[C@H](Cc2ccc(O)cc2)C(=O)N[C@@H](CC(=O)O)C(=O)N[C@@H](Cc2ccc(O)cc2)C(=O)N2CCC[C@H]2C(=O)NCC(=O)N[C@@H](CC(=O)O)C(=O)N[C@@H](Cc2ccc(O)cc2)C(=O)N1)C(=O)N[C@@H](Cc1ccc(O)cc1)C(=O)NCC(=O)NCC(=O)N[C@@H](CS)C(N)=O [Ce-2 T13G] | 0.0433 | 5.77e-05 | 1.32e+06 | 6.11e-05 | 1.19e+06 | 0.0493 | 1.08e-09 | 9.2e-10 | 0.0994 | 0.00133 | 299000 | 10.8 | –
2 | CC(C)C[C@H](NC(=O)[C@H](Cc1ccc(O)cc1)NC(=O)[C@@H]1CSCC(=O)N[C@H](Cc2ccc(O)cc2)C(=O)N[C@@H](CC(=O)O)C(=O)N[C@@H](Cc2ccc(O)cc2)C(=O)N2CCC[C@H]2C(=O)NCC(=O)N[C@@H](CC(=O)O)C(=O)N[C@@H](Cc2ccc(F)cc2)C(=O)N1)C(=O)N[C@@H](Cc1ccc(O)cc1)C(=O)NCC(=O)N[C@H](C(=O)N[C@@H](CS)C(N)=O)[C@@H](C)O [Ce-2 Y7(4F)F] | – | – | – | – | – | – | 1.67e-09 | – | 12.8 | – | – | – | –
3 | COc1ccc(C[C@H](NC(=O)[C@H](CC(C)C)NC(=O)[C@H](Cc2ccc(O)cc2)NC(=O)[C@@H]2CSCC(=O)N[C@H](Cc3ccc(O)cc3)C(=O)N[C@@H](CC(=O)O)C(=O)N[C@@H](Cc3ccc(O)cc3)C(=O)N3CCC[C@H]3C(=O)NCC(=O)N[C@@H](CC(=O)O)C(=O)N[C@@H](Cc3ccc(O)cc3)C(=O)N2)C(N)=O)cc1 [Ce-2d Y11(4OMe)F] | – | – | – | – | – | – | 6.05e-08 | – | 12.8 | – | – | – | –
4 | CC(C)C[C@H](NC(=O)[C@H](Cc1ccc(O)cc1)NC(=O)[C@@H]1CSCC(=O)N[C@H](Cc2ccc(O)cc2)C(=O)N[C@@H](CC(=O)O)C(=O)N[C@@H](Cc2ccc(F)cc2)C(=O)N2CCC[C@H]2C(=O)NCC(=O)N[C@@H](CC(=O)O)C(=O)N[C@@H](Cc2ccc(O)cc2)C(=O)N1)C(=O)N[C@@H](Cc1ccc(O)cc1)C(=O)NCC(=O)N[C@H](C(=O)N[C@@H](CS)C(N)=O)[C@@H](C)O [Ce-2 Y3(4F)F] ({CH2CO}-[dY]D[Phe(4-F)]PGDYCYLYGTC-NH2; thioether N-8) | – | – | – | – | – | – | 1.52e-09 | – | 4.18 | – | – | – | –
5 | CC(C)C[C@H](NC(=O)[C@H](Cc1ccc(O)cc1)NC(=O)[C@@H]1CSCC(=O)N[C@H](Cc2ccc(O)cc2)C(=O)N[C@@H](CC(=O)O)C(=O)N[C@@H](Cc2ccc(O)cc2)C(=O)N[C@@H](C(C)C)C(=O)NCC(=O)N[C@@H](CC(=O)O)C(=O)N[C@@H](Cc2ccc(O)cc2)C(=O)N1)C(=O)N[C@@H](Cc1ccc(O)cc1)C(=O)NCC(=O)N[C@H](C(=O)N[C@@H](CS)C(N)=O)[C@@H](C)O [Ce-2 P4V] | 0.0668 | 1.15e-05 | 173000 | 7.52e-05 | 194000 | 0.407 | 2.14e-09 | – | 8.96 | 0.000272 | 37300 | 7.29 | –
6 | CC(C)C[C@H](NC(=O)[C@H](Cc1ccc(O)cc1)NC(=O)[C@@H]1CSCC(=O)N[C@H](Cc2ccc(O)cc2)C(=O)N[C@@H](CC(=O)O)C(=O)N[C@@H](Cc2ccc(O)cc2)C(=O)N2CCC[C@H]2C(=O)NCC(=O)N[C@@H](CC(=O)O)C(=O)N[C@@H](Cc2ccc(O)cc2)C(=O)N1)C(=O)N[C@@H](Cc1ccc(O)cc1)C(=O)NCC(=O)NCC(=O)N[C@@H](Cc1c[nH]cn1)C(N)=O [Ce-2 T13G, C14H] | – | – | – | – | – | – | 1.12e-07 | – | 12.7 | – | – | – | –
7 | COc1ccc(C[C@@H]2NC(=O)CSC[C@@H](C(=O)N[C@@H](Cc3ccc(O)cc3)C(=O)N[C@@H](CC(C)C)C(=O)N[C@@H](Cc3ccc(O)cc3)C(N)=O)NC(=O)[C@H](Cc3ccc(O)cc3)NC(=O)[C@H](CC(=O)O)NC(=O)CNC(=O)[C@@H]3CCCN3C(=O)[C@H](Cc3ccc(O)cc3)NC(=O)[C@H](CC(=O)O)NC2=O)cc1 [Ce-2d Y1(4OMe)F] | – | – | – | – | – | – | 1.87e-08 | – | 20 | – | – | – | –
8 | CC(C)C[C@H](NC(=O)[C@H](Cc1ccc(O)cc1)NC(=O)[C@@H]1CSCC(=O)N[C@H](Cc2ccc(O)cc2)C(=O)N[C@@H](CC(=O)O)C(=O)N[C@@H](Cc2ccc(O)cc2)C(=O)N2CCC[C@H]2C(=O)NCC(=O)N[C@@H](CC(=O)O)C(=O)N[C@@H](Cc2c[nH]cn2)C(=O)N1)C(=O)N[C@@H](Cc1ccc(O)cc1)C(=O)NCC(=O)N[C@H](C(=O)NO)[C@@H](C)O [Ce-1 NHOH] | 0.109 | 0.000171 | 1.86e+06 | 0.00148 | 203000 | 11.5 | 2.92e-09 | – | 8.97 | 0.914 | 181000 | 5140 | koff (C. elegans iPGM; [5]): 7.8e-05 s⁻¹; kon (C. elegans iPGM; [5]): 1.9e+06 M⁻¹ s⁻¹; koff (B. malayi iPGM; [5]): 0.0015 s⁻¹; kon (B. malayi iPGM; [5]): 200000 M⁻¹ s⁻¹; t½ (E. coli iPGM [2]; SPR, dissociation half-life): ≤1 s; Kd (E. coli iPGM [2]; SPR, Req hyperbolic fit where steady state reached, else koff/kon): 5000 nM
9 | CCC[C@@H]1NC(=O)[C@@H](Cc2ccc(O)cc2)NC(=O)CSC[C@@H](C(=O)N[C@@H](Cc2ccc(O)cc2)C(=O)N[C@@H](CC(C)C)C(=O)N[C@@H](Cc2ccc(O)cc2)C(=O)NCC(=O)N[C@H](C(=O)N[C@@H](CS)C(N)=O)[C@@H](C)O)NC(=O)[C@H](Cc2ccc(O)cc2)NC(=O)[C@H](CC(=O)O)NC(=O)CNC(=O)[C@@H]2CCCN2C(=O)[C@H](Cc2ccc(O)cc2)NC1=O [Ce-2 D2Nva] ({CH2CO}-[dY][Nva]YPGDYCYLYGTC-NH2; thioether N-8) | 0.0257 | 4.98e-05 | 1.94e+06 | 0.000143 | 376000 | 0.378 | 1.51e-09 | 1.46e-09 | 8.73 | 0.00195 | 132000 | 47.1 | –
10 | CC(C)C[C@H](NC(=O)[C@H](Cc1ccc(O)cc1)NC(=O)[C@@H]1CSCC(=O)N[C@H](Cc2ccc(O)cc2)C(=O)N[C@@H](CC(=O)O)C(=O)N[C@@H](Cc2ccc(O)cc2)C(=O)N2CCC[C@H]2C(=O)NCC(=O)N[C@@H](CC(=O)O)C(=O)N[C@@H](Cc2ccccc2)C(=O)N1)C(=O)N[C@@H](Cc1ccc(O)cc1)C(=O)NCC(=O)N[C@H](C(=O)N[C@@H](CS)C(N)=O)[C@@H](C)O [Ce-2 Y7F] | – | – | – | – | – | – | 1.73e-09 | 1.78e-09 | 1.17 | – | – | – | –
11 | CC(C)C[C@H](NC(=O)[C@H](Cc1ccc(O)cc1)NC(=O)[C@@H]1CSCC(=O)N[C@H](Cc2ccc(O)cc2)C(=O)N[C@@H](CC(=O)O)C(=O)N[C@@H](Cc2ccc(O)cc2)C(=O)N2CCC[C@H]2C(=O)NCC(=O)N[C@@H](CC(=O)O)C(=O)N[C@@H](Cc2ccc(O)cc2)C(=O)N1)C(=O)N[C@@H](Cc1ccc(O)cc1)C(=O)NCCCC(=O)N[C@@H](CS)C(N)=O [Ce-2 [12-13]GABA] | – | – | – | – | – | – | 2.85e-09 | – | 2.98 | – | – | – | –
12 | CC(C)C[C@H](NC(=O)[C@H](Cc1ccc(O)cc1)NC(=O)[C@@H]1CSCC(=O)N[C@H](Cc2ccc(O)cc2)C(=O)N[C@@H](CC(N)=O)C(=O)N[C@@H](Cc2ccc(O)cc2)C(=O)N2CCC[C@H]2C(=O)NCC(=O)N[C@@H](CC(=O)O)C(=O)N[C@@H](Cc2ccc(O)cc2)C(=O)N1)C(=O)N[C@@H](Cc1ccc(O)cc1)C(=O)NCC(=O)N[C@H](C(=O)N[C@@H](CS)C(N)=O)[C@@H](C)O [Ce-2 D2N] ({CH2CO}-[dY]NYPGDYCYLYGTC-NH2; thioether N-8) | – | – | – | – | – | – | 1.99e-09 | 1.87e-09 | 0.17 | – | – | – | –
13 | COc1ccc(C[C@H]2NC(=O)CSC[C@@H](C(=O)N[C@@H](Cc3ccc(O)cc3)C(=O)N[C@@H](CC(C)C)C(=O)N[C@@H](Cc3ccc(O)cc3)C(N)=O)NC(=O)[C@H](Cc3ccc(O)cc3)NC(=O)[C@H](CC(=O)O)NC(=O)CNC(=O)[C@@H]3CCCN3C(=O)[C@H](Cc3ccc(O)cc3)NC(=O)[C@H](CC(=O)O)NC2=O)cc1 [Ce-2d Y1D(4OMe)F] | – | – | – | – | – | – | 6.18e-08 | – | 18.7 | – | – | – | –
